From PubChem BioAssay (NCI)
Values joined by “and” are separate entries in the source; they are usually repeats but may differ in a detail not shown here. Identical values can stand only once.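 Following 48 hours of exposure in 96-well plates, responses at five concentrations were used to interpolate endpoints linearly. GI50 = concentration required for 50% inhibition of growth. Definition used: TGI = concentration required for complete inhibition of growth.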

Experiments:
Assay in all cases: inhibition of tumour cell growth, NCI panel, 48 h
786-0 renal = test system: 786-0 renal
CAKI-1 renal = test system: CAKI-1 renal
HCT-116 colon = test system: HCT-116 colon
MCF7 breast = test system: MCF7 breast
RPMI-8226 leukemia = test system: RPMI-8226 leukemia
SF-295 CNS = test system: SF-295 CNS
SR leukemia = test system: SR leukemia
HCC-2998 colon = test system: HCC-2998 colon

Compound | TGI (786-0 renal) | TGI (CAKI-1 renal) | TGI (HCT-116 colon) | TGI (MCF7 breast) | TGI (RPMI-8226 leukemia) | TGI (SF-295 CNS) | TGI (SR leukemia) | TGI (HCC-2998 colon) | GI50 (HCC-2998 colon) | GI50 (HCT-116 colon) | GI50 (MCF7 breast) | GI50 (RPMI-8226 leukemia) | GI50 (SF-295 CNS) | GI50 (SR leukemia)
N#Cc1nc(C(=O)c2ccccc2)oc1N | > 100 µM | > 100 µM | > 100 µM | > 100 µM | > 100 µM |  |  |  |  |  |  |  |  | 
COC1OC2COC(c3ccccc3)OC2C(OC(=S)c2ccccc2)C1O (stereo not drawn) |  | > 100 µM |  | > 100 µM | > 100 µM | > 100 µM | > 100 µM |  |  |  |  |  |  | 
c1ccc2c(c1)[C@@H]1O[C@@H]1[C@@]13O[C@@]21[C@H]1O[C@H]1c1ccccc13 | 30.1 µM | 23.2 µM | 25.2 µM | > 100 µM | 33.7 µM | 30.1 µM |  | 35.1 µM |  |  |  |  |  | 
N#CC(NNC(=O)c1c(Cl)c(Cl)c(Cl)c(Cl)c1-c1nc2ccc(C(=O)c3ccccc3)cc2[nH]1)c1cccc(Oc2ccccc2)c1 (stereo not drawn) | 51.4 µM | > 100 µM | > 100 µM | 65.6 µM | 91.8 µM | 96.6 µM | 54.4 µM |  |  |  |  |  |  | 
H-KIFKKFKTIIKKVWRIFGRF-NH2 |  |  | > 100 µM | > 100 µM | > 100 µM | 4.68 µM | > 100 µM | 7.68 µM | 2.65 µM | 3.22 µM | 3.04 µM | 3.11 µM | 2.05 µM | 2.72 µM
COc1ccc2c(-c3csc(-c4c[nH]c5ccccc45)n3)c[nH]c2c1 | 18.2 µM | 32.8 µM | 19 µM | > 100 µM | > 24.5 µM | 35.2 µM | > 100 µM | 30.4 µM |  |  |  |  |  | 
S=C1NNC(=S)NN1 | > 1 µM | 0.475 µM | > 1 µM | > 1 µM | > 1 µM | 0.486 µM | 0.671 µM | > 1 µM |  |  |  |  |  | 
O=C(Nc1ccccc1C(=O)O)C(=Cc1ccccc1O)NC(=O)c1ccccc1 | > 100 µM | > 100 µM | > 100 µM | > 100 µM | > 100 µM | > 100 µM | > 100 µM | > 100 µM |  |  |  |  |  | 
Cc1cccc(-c2cc(=O)c3cc(C)cnc3[nH]2)c1 | > 100 µM | > 100 µM | 11.4 µM |  | 30.1 µM | 0.609 µM | 1.7 µM | 6.82 µM |  |  |  |  |  | 
Cc1cnc2[nH]c(-c3sccc3C)cc(=O)c2c1 | > 100 µM | > 100 µM | > 100 µM | > 100 µM | > 100 µM | > 100 µM | > 100 µM | 96.8 µM |  |  |  |  |  | 
CC(=O)OC1COC(n2c(N)c(C#N)c(-c3ccccc3)c(C#N)c2=S)C(OC(C)=O)C1OC(C)=O (stereo not drawn) | > 100 µM | > 100 µM | > 100 µM | > 100 µM | 58.7 µM and 68.3 µM | > 100 µM | 46.3 µM and 52.2 µM | 90.1 µM and 56.9 µM |  |  |  |  |  | 
CC(C)(CO)Nc1c(O)c2c(c(O)c1Cl)C(=O)C=CC2=O | 2.85 µM | 3.41 µM | 3.07 µM | 2.65 µM | 4.82 µM | 3.21 µM | 0.782 µM | 2.75 µM |  |  |  |  |  | 
CC(=O)c1c2c(cc3c1CCC3)CCC2 | > 100 µM | > 100 µM | > 100 µM | > 100 µM | > 100 µM | > 100 µM | > 100 µM | > 100 µM |  |  |  |  |  | 
COc1ccc(C(OCC2OC(n3ccc(Oc4c(F)c(F)c(F)c(F)c4F)nc3=O)CC2OP(OCCC#N)N(C(C)C)C(C)C)(c2ccccc2)c2ccc(OC)cc2)cc1 (stereo not drawn) | > 100 µM | > 100 µM | > 100 µM | > 100 µM | > 100 µM | > 100 µM | > 100 µM | > 100 µM |  |  |  |  |  | 
NC(=O)c1nnc2c(F)cccc2c1N | > 100 µM | > 100 µM | > 100 µM | > 100 µM | > 100 µM | > 100 µM | > 100 µM | > 100 µM |  |  |  |  |  | 
C/C(=C\c1ccccc1)n1c(=O)cc(C)n1C |  | > 100 µM | > 100 µM | > 100 µM | > 100 µM | > 100 µM |  | > 100 µM |  |  |  |  |  | 
O=C1CSC2=NC3=C(COC/C3=C\c3ccc(F)cc3)C(c3ccc(F)cc3)N12 (stereo not drawn) | > 100 µM | > 100 µM | > 100 µM | > 100 µM | > 100 µM | > 100 µM | > 100 µM | > 100 µM |  |  |  |  |  | 
CC(=O)OCC12C(OC(C)=O)C[C@@H](C)C3(CC(c4ccoc4)OC3=O)C1CCC(OC(C)=O)C21CO1 (stereo partly drawn) | > 100 µM | > 100 µM | > 100 µM | > 100 µM | > 100 µM | > 100 µM |  | > 100 µM |  |  |  |  |  | 
CC(=O)O[C@H]1CC[C@]2(C=O)[C@H]3CC[C@]4(C)[C@@H](C5=CC(=O)OC5)CC[C@]4(O)[C@@H]3CC[C@]2(O)C1 |  | 0.06 µM | 0.5 µM |  | 3.21 µM | 0.853 µM | > 100 µM | 1.33 µM |  |  |  |  |  | 
CCOC(=O)CCC1(C(=O)O[C@@H]2C[C@H](C)CC[C@H]2C(C)C)CCCCC1=O (stereo partly drawn) | > 100 µM | > 100 µM | > 100 µM | > 100 µM | > 100 µM | > 100 µM | > 100 µM |  |  |  |  |  |  | 
O=C1CSC(c2cc3cc(Br)ccc3nc2Cl)N1c1ccc(F)c(Cl)c1 (stereo not drawn) | > 50 µM | > 50 µM | > 50 µM | > 50 µM | > 50 µM | > 50 µM | > 50 µM | > 50 µM |  |  |  |  |  | 
CC1C/C(=C\c2ccc(O)c(O)c2)C(=O)/C(=C/c2ccc(O)c(O)c2)C1 (stereo not drawn) |  | 18.1 µM | 20 µM | 14.8 µM |  | 27.7 µM | 14 µM | 35.1 µM |  |  |  |  |  | 
O=C1CCc2c(sc3ncnc(Nc4cccc(Br)c4)c23)C1 | 19 µM | 12.5 µM | 11.7 µM | 22.3 µM | > 20.3 µM | 15.3 µM | 7.82 µM | 15 µM |  |  |  |  |  | 
CCCCCC(=O)OCC1(CO)C/C(=C/CC(C(C)C)C(C)C)C(=O)O1 (stereo not drawn) | > 75 µM | 66.8 µM | > 75 µM | > 75 µM |  | > 75 µM |  | > 75 µM |  |  |  |  |  | 
COC1OC(=O)C(OC)C(OC)C1OC (stereo not drawn) | > 100 µM | > 100 µM | > 100 µM | > 100 µM | > 100 µM | > 100 µM | > 100 µM | > 100 µM |  |  |  |  |  | 
CC1CN=C(N(C(=O)Nc2ccccc2)C2CCCCC2)S1 (stereo not drawn) | 31.4 µM | 31.2 µM | 33.1 µM | 31.8 µM | 49.7 µM | 31.8 µM | 35.1 µM | 34.6 µM |  |  |  |  |  | 
